Data published in publication PMC5011342, “A high throughput drug screening assay to identify compounds that promote oligodendrocyte differentiation using acutely dissociated and purified oligodendrocyte precursor cells” (BMC Research Notes, 2016).
Like-named read-outs stand apart in the source and are kept apart here.

Legend:
[1] = tested on: acutely dissociated and purified rat OPCs; experiment: Acute OL differentiation assay (MBP expression/cell, immunofluorescent image quantification); assay type: cell-based; settings: sheet "All OLga data"; for activation at 2 µM / activation at 10 µM / activation at 0.4 µM / activation at 0.08 µM: Rattus norvegicus; for activation at 0.08 µM: test compound at 0.08 uM, read-out: 0.08 uM (% Quet)
Outline: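 This acute differentiation assay used purified rat OPCs from postnatal day 6–7 pups, seeded into PDL/laminin-coated 96-well plates in differentiation medium lacking PDGF and FGF. Compounds were applied in quadruplicate after a 1–2 h preincubation at 37 °C, 10 % CO2, with 0.1 % DMSO negative and 40 ng/ml T3 positive controls in eight wells. After fixation on DIV4, anti-MBP immunofluorescence images yielded MBP expression/cell.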

expanded OPCs = experiment: cells; settings: for viability at 0.1 µM / viability at 1 µM / viability at 10 µM: Rattus norvegicus, 72 h
Outline: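 Toxicity screen: compounds added at 0.1, 1 and 10 µM to PDGF-AA-expanded OPCs in 96-well plates, 3-day incubation at 37 °C, 10% CO2, then alamarBlue 1:10 for 4 h with fluorescence readout. Results set screening doses of 10/2, 2/0.4 or 0.4/0.08 µM.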

[2] = 2 uM test compound, relative to quetiapine, read-out: OL differentiation, 2 uM (% Quet)
[3] = 10 uM test compound, relative to quetiapine, read-out: OL differentiation, 10 uM (% Quet)
[4] = test compound at 2 uM, MBP expression relative to quetiapine, NCC library screen, read-out: 2 uM (% Quet)
[5] = test compound at 10 uM, MBP expression relative to quetiapine, NCC library screen, read-out: 10 uM (% Quet)
[6] = read-out: 0.1 µM (% DMSO), alamarBlue viability of expanded OPCs, compound at 0.1 µM, sheet All Tox data
[7] = read-out: 1 µM (% DMSO), alamarBlue viability of expanded OPCs, compound at 1 µM, sheet All Tox data
[8] = read-out: 10 µM (% DMSO), alamarBlue viability of expanded OPCs, compound at 10 µM, sheet All Tox data
[9] = alamarBlue viability of expanded OPCs, compound at 0.1 µM, relative to DMSO control
[10] = alamarBlue viability of expanded OPCs, compound at 1 µM, relative to DMSO control
[11] = alamarBlue viability of expanded OPCs, compound at 10 µM, relative to DMSO control
[12] = test compound at 2 uM, NCC library screen, relative to quetiapine, read-out: 2 uM (% Quet)
[13] = test compound at 10 uM, NCC library screen, relative to quetiapine, read-out: 10 uM (% Quet)
[14] = read-out: 0.1 µM (% DMSO), alamarBlue viability, NCC library compound at 0.1 µM, sheet "All Tox data"
[15] = read-out: 1 µM (% DMSO), alamarBlue viability, NCC library compound at 1 µM, sheet "All Tox data"
[16] = read-out: 10 µM (% DMSO), alamarBlue viability, NCC library compound at 10 µM, sheet "All Tox data"
[17] = 0.4 uM test compound, relative to quetiapine, read-out: OL differentiation, 0.4 uM (% Quet)
[18] = test compound at 0.4 uM, MBP expression relative to quetiapine, NCC library screen, read-out: 0.4 uM (% Quet)

SMILES | activation at 2 µM [1, 2] [%] | activation at 10 µM [1, 3] [%] | viability at 0.1 µM (expanded OPCs; [6]) [%] | viability at 1 µM (expanded OPCs; [7]) [%] | viability at 10 µM (expanded OPCs; [8]) [%] | 0.1 µM (% DMSO) (expanded OPCs; [9]) | 1 µM (% DMSO) (expanded OPCs; [10]) | 10 µM (% DMSO) (expanded OPCs; [11]) | also measured
Nc1ccn([C@@H]2CS[C@H](CO)O2)c(=O)n1 [Lamivudine] | -2.4 | -27.9 | 87.3 | 96 | 113 | 94.3 | 88.1 | 79.4 | activation at 2 µM [1, 4]: 2.9%; activation at 10 µM [1, 5]: -9.8%
Nc1nnc(-c2cccc(Cl)c2Cl)c(N)n1 [Lamotrigine] | -14.6 | -8.7 | 94.8 | 104 | 99.5 | – | – | – | –
Cc1c(OCC(F)(F)F)ccnc1C[S+]([O-])c1nc2ccccc2[nH]1 (stereo not drawn) [Lansoprazole] | – | – | – | – | – | – | – | – | activation at 2 µM [1, 12]: -3.1%; activation at 10 µM [1, 13]: -72%; viability at 0.1 µM (expanded OPCs; [14]): 94.2%; viability at 1 µM (expanded OPCs; [15]): 86.3%; viability at 10 µM (expanded OPCs; [16]): 99.9%
CC(C)OC(=O)CCC/C=C\C[C@@H]1[C@@H](CC[C@@H](O)CCc2ccccc2)[C@H](O)C[C@@H]1O [Latanoprost] | -37.3 | -143 | 85.2 | 91.5 | 81.4 | – | – | – | –
C#C[C@]1(O)CC[C@H]2[C@@H]3CCC4=CC(=O)CC[C@@H]4[C@H]3CC[C@@]21CC [Levonorgestrel] | 7.5 | -8.6 | 97.5 | 88 | 91.5 | – | – | – | –
CN1CC[C@]23CCCC[C@H]2[C@H]1Cc1ccc(O)cc13 [Levorphanol] | -6.9 | 17 | 77.4 | 83.4 | 74 | – | – | – | –
CCN(CC)CC(=O)Nc1c(C)cccc1C [Lidocaine] | -0.03 | 17.6 | 84.8 | 86 | 85.5 | – | – | – | –
CCC[C@@H]1C[C@@H](C(=O)N[C@@H]([C@H]2O[C@H](SC)[C@H](O)[C@@H](O)[C@H]2O)[C@@H](C)O)N(C)C1 [Lincomycin] | – | – | – | – | – | 93.6 | 94.1 | 87.7 | activation at 2 µM [1, 4]: 12.6%; activation at 10 µM [1, 5]: -2.9%
O=C1N(c2ccccc2)c2ccccc2C1(Cc1ccncc1)Cc1ccncc1 [Linopirdine] | – | – | – | – | – | – | – | – | activation at 2 µM [1, 12]: -7.9%; activation at 10 µM [1, 13]: -12.7%; viability at 0.1 µM (expanded OPCs; [14]): 90.7%; viability at 1 µM (expanded OPCs; [15]): 94.5%; viability at 10 µM (expanded OPCs; [16]): 86.2%
CN1[C@@H](CC(=O)c2ccccc2)CCC[C@H]1C[C@H](O)c1ccccc1 [Lobeline] | -5 | 0.65 | – | – | – | – | – | – | viability at 0.1 µM (expanded OPCs; [14]): 96.9%; viability at 1 µM (expanded OPCs; [15]): 89.9%; viability at 10 µM (expanded OPCs; [16]): 64.3%
CN(CCCN1c2ccccc2CCc2ccccc21)CC(=O)c1ccc(Cl)cc1 [Lofepramine] | -3.7 | – | 97.9 | 79.6 | 47.1 | – | – | – | activation at 0.4 µM [1, 17]: 1.3%
COc1ccc(CN2CCN(C(c3ccc(F)cc3)c3ccc(F)cc3)CC2)c(OC)c1OC [Lomerizine] | -3.9 | – | – | – | – | – | – | – | activation at 0.4 µM [1, 17]: 0.09%; viability at 0.1 µM (expanded OPCs; [14]): 92.5%; viability at 1 µM (expanded OPCs; [15]): 58.5%; viability at 10 µM (expanded OPCs; [16]): 11%
CN(C)C(=O)C(CCN1CCC(O)(c2ccc(Cl)cc2)CC1)(c1ccccc1)c1ccccc1 [Loperamide] | – | – | – | – | – | 70.2 | 40.0 | 11.4 | activation at 0.08 µM ([1]; NCC library screen, relative to quetiapine): -0.19%; activation at 0.4 µM ([1]; test compound at 0.4 uM, NCC library screen, relative to quetiapine, read-out: 0.4 uM (% Quet)): -17.5%
CCOC(=O)N1CCC(=C2c3ccc(Cl)cc3CCc3cccnc32)CC1 [Loratadine] | -36.8 | – | 90.8 | 77.7 | 13.9 | – | – | – | activation at 0.4 µM [1, 17]: 5.6%
O=C1Nc2ccc(Cl)cc2C(c2ccccc2Cl)=NC1O (stereo not drawn) [Lorazepam] | – | – | – | – | – | – | – | – | activation at 2 µM [1, 12]: -21.5%; activation at 10 µM [1, 13]: -31.2%; viability at 0.1 µM (expanded OPCs; [14]): 90.5%; viability at 1 µM (expanded OPCs; [15]): 81.6%; viability at 10 µM (expanded OPCs; [16]): 71.2%
CCCCc1nc(Cl)c(CO)n1Cc1ccc(-c2ccccc2-c2nn[nH]n2)cc1 [Losartan] | 5.2 | -7.3 | 97.6 | 91.6 | 102 | – | – | – | –
CCOC(=O)O[C@]1(C(=O)OCCl)CC[C@H]2[C@@H]3CCC4=CC(=O)C=C[C@]4(C)[C@H]3[C@@H](O)C[C@@]21C [Loteprednol etabonate] | -10.9 | -29.2 | – | – | – | – | – | – | viability at 0.1 µM (expanded OPCs; [14]): 104%; viability at 1 µM (expanded OPCs; [15]): 98.4%; viability at 10 µM (expanded OPCs; [16]): 86.4%
CC[C@H](C)C(=O)O[C@H]1C[C@@H](C)C=C2C=C[C@H](C)[C@H](CC[C@@H]3C[C@@H](O)CC(=O)O3)[C@H]21 [Lovastatin] | – | – | – | – | – | 147.6 | 99.7 | 46.0 | activation at 0.4 µM [1, 18]: -70.9%; activation at 2 µM [1, 4]: -93.2%
CN1CCN(C2=Nc3ccccc3Oc3ccc(Cl)cc32)CC1 [Loxapine] | -18.5 | – | 85.7 | 71.4 | 29 | – | – | – | activation at 0.4 µM [1, 17]: -5.9%
CC(C)c1ccc2c(c1)c(SC(C)(C)C)c(CC(C)(C)C(=O)O)n2Cc1ccc(Cl)cc1 [MK 886] | – | – | – | – | – | – | – | – | 0.4 uM (% Quet) ([1]; test compound at 0.4 uM, NCC library screen, relative to quetiapine): 51.1 % Quet; 2 uM (% Quet) ([1]; test compound at 2 uM, NCC library screen, relative to quetiapine): -93.5 % Quet; 0.1 µM (% DMSO) (expanded OPCs; alamarBlue viability, NCC library compound at 0.1 µM, sheet "All Tox data"): 97.3 % DMSO; 1 µM (% DMSO) (expanded OPCs; alamarBlue viability, NCC library compound at 1 µM, sheet "All Tox data"): 107.0 % DMSO; 10 µM (% DMSO) (expanded OPCs; alamarBlue viability, NCC library compound at 10 µM, sheet "All Tox data"): 10.8 % DMSO
NCc1ccc(S(N)(=O)=O)cc1 [Mafenide] | – | – | – | – | – | 97.9 | 90.1 | 86.7 | activation at 2 µM [1, 4]: 28.6%; activation at 10 µM [1, 5]: 10%
Cc1occc(=O)c1O [Maltol] | – | – | – | – | – | – | – | – | activation at 2 µM [1, 12]: -7%; activation at 10 µM [1, 13]: 8.2%; viability at 0.1 µM (expanded OPCs; [14]): 83.5%; viability at 1 µM (expanded OPCs; [15]): 91.1%; viability at 10 µM (expanded OPCs; [16]): 84.9%
CNCCCC12CCC(c3ccccc31)c1ccccc12 [Maprotiline] | -52.5 | – | 78.2 | 54.1 | 13.8 | – | – | – | activation at 0.4 µM [1, 17]: 15.2%
COC(=O)Nc1nc2ccc(C(=O)c3ccccc3)cc2[nH]1 [Mebendazole] | – | – | – | – | – | 47.2 | 53.6 | 45.7 | activation at 0.08 µM ([1]; MBP expression relative to quetiapine, NCC library screen): -29.9%; activation at 0.4 µM [1, 18]: -139%
Cc1cccc(CN2CCN(C(c3ccccc3)c3ccc(Cl)cc3)CC2)c1 (stereo not drawn) [Meclizine] | – | – | – | – | – | 143.0 | 107.8 | 9.1 | activation at 0.4 µM [1, 18]: 96.7%
Cc1ccc(Cl)c(Nc2ccccc2C(=O)O)c1Cl [Meclofenamic acid] | – | – | – | – | – | 91.1 | 93.6 | 93.6 | activation at 2 µM [1, 4]: 14.1%; activation at 10 µM [1, 5]: -2.1%
CC(=O)O[C@]1(C(C)=O)CC[C@H]2[C@@H]3C[C@H](C)C4=CC(=O)CC[C@]4(C)[C@H]3CC[C@@]21C [Medroxyprogesterone acetate] | – | – | – | – | – | 104.2 | 103.1 | 118.4 | activation at 2 µM [1, 12]: -30.5%; activation at 10 µM [1, 13]: -36.7%
CC(=O)[C@H]1CC[C@H]2[C@@H]3C[C@H](C)C4=CC(=O)CC[C@]4(C)[C@H]3[C@@H](O)C[C@]12C [Medrysone] | – | – | – | – | – | – | – | – | activation at 2 µM [1, 12]: -6%; activation at 10 µM [1, 13]: -16.5%; viability at 0.1 µM (expanded OPCs; [14]): 130%; viability at 1 µM (expanded OPCs; [15]): 125%; viability at 10 µM (expanded OPCs; [16]): 121%
